Holding throughout (experiment): inhibition of tumour cell growth, NCI panel, 48 h
Test [1] deals with SF-268.
Test [2] deals with Malme-3M.
Test [3] concerns UO-31.
Test [4] deals with SR.
Test [5] relates to HCT-15.
In test [6] the test system is OVCAR-8.
The test system of test [7] is SNB-19.
Test [8] has as its system MOLT-4.
For test [9], the system named is NCI/ADR-RES.
Test [10] relates to RPMI-8226.
For test [11], the system named is HCT-116.
Test [12] deals with SK-MEL-28.
Test [13] deals with OVCAR-3.
Test [14] concerns U-251.
Test [15] has as its system OVCAR-4.
Test [16] has as its system IGROV-1.
The subject of test [17] is HOP-62.
For test [18], the system named is COLO 205.
Test [19] deals with HCC 2998.

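Protocol summary: plate cells (96-well), add compound at 5 concentrations, incubate 48 h, interpolate endpoints linearly. The concentration for 50% growth inhibition is given as GI50.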 Active and inactive are the calls of the source. No stated cut-off is given here; in the data, active = GI50 up to about 1.1 µM and inactive = higher.

Regarding `O=C1c2cc([N+](=O)[O-])ccc2-c2ccc3c4ccc5c6c(ccc(c7ccc1c2c73)c64)C(=O)c1cc([N+](=O)[O-])ccc1-5`, the GI50 was > 100 µM (inactive) in test [1]; > 100 µM (inactive) in test [2]; > 100 µM (inactive) in test [3]; > 100 µM (inactive) in test [4]; over 100 µM in [5]; > 100 µM (inactive) in test [6]. Also, the GI50 in test [7], in test [8], in test [9], in test [10], in test [11] and in test [12] was > 100 µM (inactive) each time. Moreover, the GI50 in test [13], in test [14], in test [15], in test [16], in test [17] and in [18] was > 100 µM (inactive) in each case.
In the case of `NC(=O)c1csc(-c2ccc(CO)o2)n1`, the GI50 is > 100 µM (inactive) in test [1]; > 100 µM (inactive) in [2]; > 100 µM (inactive) in test [3]; > 100 µM (inactive) in test [4]; over 100 µM in [5]; > 100 µM (inactive) in test [6]. Also, the GI50 in test [7], in [8], in test [9], in test [10], in test [11] and in [12] was > 100 µM (inactive) in each case. Moreover, the GI50 in test [13], in [14], in test [15], in test [16] and in [18] was > 100 µM (inactive) throughout.
`COc1ccccc1/C=C\C(=O)C1COCN1` (stereo unspecified): the GI50 in [1] was 21 µM (inactive); in test [2], 19.3 µM (inactive); in test [3], 16.4 µM (inactive); in test [4] it was 1.95 µM (inactive); in [5], 14.7 µM; in [6], 14.5 µM (inactive). The GI50 was 13.1 µM (inactive) in test [7]; 3.95 µM (inactive) in [8]; 15.2 µM (inactive) in test [9]; 2.24 µM (inactive) in test [10]; 6.97 µM (inactive) in test [11]; 18 µM (inactive) in test [12]. For the same molecule, the GI50 in test [13] was 8.24 µM (inactive); in test [14], 11.1 µM (inactive); in test [15], 16.3 µM (inactive); in [16], 16.1 µM (inactive); in test [17], 21.4 µM (inactive); in [18], 6.35 µM (inactive).
Take `CC(C(O)Cc1ccccc1)N(C)/N=N/c1ccc([N+](=O)[O-])cc1` (stereo unspecified): the GI50 in test [1] is 21 µM (inactive); in [2] it was 22.2 µM (inactive); in test [3], 15.2 µM (inactive); in [19], 16.7 µM (inactive); in test [5], 22.8 µM; in [6] it was 17.6 µM (inactive). The GI50 in test [7] is 39.4 µM (inactive); in test [8] it was 18.2 µM (inactive); in test [9] it was 18.8 µM (inactive); in test [10] it was 16.9 µM (inactive); in test [11], 16.4 µM (inactive); in [12] it was 18 µM (inactive). The GI50 in test [13] was 14.8 µM (inactive); in test [14] it was 17.7 µM (inactive); in test [15], 29.9 µM (inactive); in test [16], 19.4 µM (inactive); in test [17], 16.7 µM (inactive); in test [18] it was 21.2 µM (inactive).
In the case of `C=C(C)CCC1C=[N+]([O-])OC(C)(C)C1(C)C` (stereo unspecified), the GI50 is > 100 µM (inactive) in [1]; > 100 µM (inactive) in test [3]; > 100 µM (inactive) in [19]; > 100 µM (inactive) in [4]; 84.3 µM in [5]; > 100 µM (inactive) in [6]. For the same molecule, the GI50 in test [8], in test [9], in test [10], in [11], in [13] and in test [14] was > 100 µM (inactive) each time. The GI50 in test [16], in test [17] and in test [18] was > 100 µM (inactive) each time.
Consider `NC(=O)c1cc2ccccc2o/c1=N/O`, for which the GI50 in test [1] was > 100 µM (inactive); in test [3], 38.7 µM (inactive); in [19] it was > 100 µM (inactive); in test [4], > 100 µM (inactive); in test [5], over 100 µM; in test [6], > 100 µM (inactive). The GI50 in [7], in test [8], in test [9], in [10], in [11] and in test [12] was > 100 µM (inactive) each time. The GI50 was > 100 µM (inactive) in test [13]; > 100 µM (inactive) in test [14]; 66.1 µM (inactive) in test [16]; > 100 µM (inactive) in test [17]; > 100 µM (inactive) in test [18].
As to `c1ccc(CN2C3C4N(Cc5ccccc5)C2C2N(Cc5ccccc5)C(C(N2Cc2ccccc2)N4Cc2ccccc2)N3Cc2ccccc2)cc1`, the GI50 in test [1] was > 100 µM (inactive); in test [19] it was > 100 µM (inactive); in test [4] it was > 100 µM (inactive); in [5], over 100 µM; in [6], > 100 µM (inactive); in test [8], > 100 µM (inactive). Further, the GI50 in [9], in test [10], in test [11], in test [12], in test [13] and in test [14] was > 100 µM (inactive) each time. For the same molecule, the GI50 in test [16], in test [17] and in test [18] was > 100 µM (inactive) each time.
Regarding `Nc1ccccc1.O=C(O)C(C(F)(F)F)C(F)(F)F`, the GI50 in test [1] was > 100 µM (inactive); in test [2] it was > 100 µM (inactive); in [3] it was > 100 µM (inactive); in [4], > 100 µM (inactive); in test [5], 14.9 µM; in [6], > 100 µM (inactive). The GI50 in [7], in test [8], in [9], in [10], in [11] and in test [12] was > 100 µM (inactive) each time. In addition, the GI50 in [13], in test [14], in test [15], in test [16], in test [17] and in [18] was > 100 µM (inactive) each time.

The values above are taken from ChEMBL document CHEMBL1201862, “PubChem BioAssay data set” (2004).
